In PubChem BioAssay (NCI) one finds TGI and GI50 data, which are given here for 3 compounds.

Each structure is given as a SMILES string.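 Briefly, cells in 96-well plates were exposed to five compound concentrations for 48 h, and endpoints were estimated by linear interpolation. At the GI50, growth is halved. TGI marks complete inhibition of growth.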

Among the test systems are HT29 colon; IGROV1 ovarian; KM12 colon; LOX IMVI melanoma; NCI-H23 lung; NCI-H522 lung; RXF 393 renal; SN12C renal; UACC-257 melanoma; UO-31 renal.
Holding throughout (test): NCI tumour cell line growth inhibition, 48 h

For `CC(C)c1c(O)ccc2c1CCC1C(C)(C)CCCC21C` (stereo not given), the TGI with HT29 colon was 32.1 µM; in the assay with IGROV1 ovarian, 30 µM; in the assay with KM12 colon, 42.7 µM; in the assay with LOX IMVI melanoma, 31.1 µM; in the assay on NCI-H23 lung it was 31.8 µM; with NCI-H522 lung it was 34.6 µM. Besides, the TGI with RXF 393 renal came to 29.3 µM; in the assay on SN12C renal, 27.8 µM; with UACC-257 melanoma it was 32.2 µM; in the assay with UO-31 renal it was 31.4 µM.

As for `CNCCNc1c2c(c(NCCNC)c3[nH]ccc13)C(=O)c1ccccc1C2=O`, the GI50 in the assay with HT29 colon was 1.35 µM; with IGROV1 ovarian it was 0.111 µM; in the assay on KM12 colon, 0.0892 µM; with LOX IMVI melanoma, less than 0.0231 µM; in the assay with NCI-H23 lung it was 0.197 µM; with NCI-H522 lung it was 0.117 µM. Also, the GI50 was 0.214 µM in the assay with RXF 393 renal, less than 0.0257 µM in the assay with SN12C renal, 1.72 µM in the assay with UACC-257 melanoma and 0.201 µM with UO-31 renal. The TGI amounted to 5.23 µM in the assay on HT29 colon; 0.686 µM in the assay with IGROV1 ovarian; 0.374 µM with KM12 colon; 0.0717 µM in the assay with LOX IMVI melanoma; 0.558 µM in the assay on NCI-H23 lung; 0.339 µM in the assay with NCI-H522 lung. Moreover, the TGI amounted to 0.752 µM with RXF 393 renal, 0.097 µM in the assay on SN12C renal, 7.04 µM in the assay with UACC-257 melanoma and 0.818 µM in the assay with UO-31 renal.

Turning to `Cc1cc(=O)[nH]c2cc3c(c4c(n3Cc3ccc(Cl)cc3Cl)CC(C)(C)CC4=O)c(O)c12`, the GI50 is greater than 100 µM in the assay with HT29 colon; greater than 100 µM with IGROV1 ovarian; greater than 100 µM in the assay on KM12 colon; greater than 100 µM in the assay on LOX IMVI melanoma; 39.6 µM in the assay on NCI-H23 lung; greater than 100 µM in the assay with NCI-H522 lung. Also, the GI50 with RXF 393 renal, in the assay with SN12C renal, in the assay with UACC-257 melanoma and in the assay with UO-31 renal was greater than 100 µM in each case. The TGI with HT29 colon, with IGROV1 ovarian, with KM12 colon, in the assay on LOX IMVI melanoma, in the assay on NCI-H23 lung and in the assay with NCI-H522 lung was greater than 100 µM throughout. The TGI in the assay on RXF 393 renal, in the assay on SN12C renal, in the assay on UACC-257 melanoma and with UO-31 renal was greater than 100 µM in each case.
